Key:
[1] = absolute recovery over vacuum-assisted evaporative concentration; higher = better recovery; settings: enrichment method: VEC
In short: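 After spiking with standards before concentration, after concentration or not at all, at 1000 ng/L for wastewater or 200 ng/L for nanopure and surface water with class- and compound-specific adjustments, samples of 6 mL influent, 15 mL effluent and 60 mL surface or nanopure water were evaporated at 55 °C and 20 mbar to about 0.3 mL. They were brought to 0.4 mL, centrifuged, given internal standards and analysed by LC-HRMS/MS. Absolute recovery, (response ratio pre − unspiked)/(post − unspiked) × 100, used averages of ≥ 2 replicates.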

[2] = LC retention time (Atlantis T3, 5-95% MeOH gradient, 0.1% formic acid); higher = more retained / less polar
In short: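 Retention times were recorded for reference standards on a polar reversed-phase C18 column. The standards were of purity ≥ 95%, and the Atlantis T3 column (3 × 150 mm, 3 μm) was run at 0.3 mL/min with a gradient from 5 to 95% methanol over 17.5 min, both water and methanol containing 0.1% formic acid. Detection used high-resolution tandem mass spectrometry on a QExactive Plus, with positive and negative electrospray in separate runs, and peaks were integrated in TraceFinder (5 ppm tolerance, at least three points per peak) before being checked by hand.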

[3] = absolute recovery over mixed-bed multilayer solid-phase extraction; higher = better recovery; settings: enrichment method: SPE
In short: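 Wastewater (100–250 mL, pH 6.5, glass-fibre filtered) and unfiltered nanopure water (1000 mL) were extracted on a three-layer mixed-bed cartridge, with standards spiked before extraction, after it, or not at all at 1000 ng/L and 200 ng/L respectively, apart from some classes. Internal standards were then added for liquid chromatography with high-resolution tandem mass spectrometry in both ionisation modes. Absolute recovery compares background-corrected response ratios of pre- and post-spiked samples across at least two replicates.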

Row | SMILES | absolute recovery ([1]; wastewater effluent) [%] | absolute recovery ([1]; wastewater influent) [%] | LC retention time [2] [min] | absolute recovery ([3]; nanopure water) [%] | absolute recovery ([3]; surface water) [%] | absolute recovery ([3]; wastewater effluent) [%] | absolute recovery ([3]; wastewater influent) [%]
1 | CC(C)OC(=O)C(C)(C)Oc1ccc(C(=O)c2ccc(Cl)cc2)cc1 [Fenofibrat] | 105 | 98.6 | 22.5 | 70 | 86.7 | 81 | 78.4
2 | CC(C)c1nc(N(C)S(C)(=O)=O)nc(-c2ccc(F)cc2)c1C=CC(O)CC(O)CC(=O)[O-] (stereo not given) [Rosuvastatin] | 108 | 91.4 | 18.3 | 96.2 | 92.9 | 90 | 90.1
3 | CCOC(=O)OC1=C(c2cc(C)ccc2C)C(=O)NC12CCC(OC)CC2 (stereo not given) [Spirotetramat] | 61.7 | 54.9 | 20 | 12 | 16.9 | 29.9 | 27
4 | CC(C)[NH2+]CC(O)COc1ccc(CC(=O)[O-])cc1 (stereo not given) [Atenolol-acid (=Metoprolol acid)] | 108 | 104 | 10.5 | 97.3 | 98.9 | 92.1 | 75.4
5 | CON(C)C(=O)Nc1ccc(Cl)cc1 [Monolinuron] | 92.7 | – | 17.9 | – | 92.4 | 91.9 | 94.2
6 | C#CCOc1ccc(CCNC(=O)C(OCC#C)c2ccc(Cl)cc2)cc1OC (stereo not given) [Mandipropamid] | 110 | 112 | 19.2 | 105 | 117 | 110 | 93.5
7 | CCOC(=O)NCCOc1ccc(Oc2ccccc2)cc1 [Fenoxycarb] | 127 | 120 | 20.4 | 105 | 127 | 113 | 74.2
8 | N#Cc1c[nH]cc1-c1cccc2c1OC(F)(F)O2 [Fludioxonil] | 116 | 108 | 19.5 | 101 | 108 | 105 | 77
9 | CC=CC(=O)N(CC)c1ccccc1C [Crotamiton] | 59.5 | 70.2 | 19.3 | 78.6 | 70.5 | 75.3 | 91.5
10 | COc1cc(OC)nc(NC(=O)[N-]S(=O)(=O)N(C)S(C)(=O)=O)n1 [Amidosulfuron] | 112 | 98.2 | 18 | 94.7 | 101 | 93.3 | 111
11 | CC(=O)Nc1nnc(S([NH-])(=O)=O)s1 [Acetazolamide] | 106 | 107 | 10.5 | 90.8 | 95.6 | 94.2 | 96.6
12 | COc1cccc(C2(O)CCCCC2C[N+](C)(C)[O-])c1 (stereo not given) [Tramadol-N-oxide] | 104 | 102 | 12.7 | 99.4 | 91.3 | 90.2 | 95
13 | O=c1ccn(C2OC(CO)C(O)C2(F)F)c(=O)[nH]1 (stereo not given) [2-2-Difluorodeoxyuridin] | 122 | 88.2 | 9.37 | 88.2 | – | 95.1 | –
14 | [O-][n+]1nc(-n2ccnc2)nc2ccc(Cl)cc21 [Triazoxide] | 105 | 89 | 17.5 | 87.3 | 91.5 | 87.4 | 92.3
15 | CC[NH+]1CCCC1CNC(=O)c1cc(S(=O)(=O)CC)c(N)cc1OC (stereo not given) [Amisulprid] | 106 | 102 | 10.4 | 93.1 | 94.8 | 93.4 | 92.7
16 | C=C1CC2C(CCC3(C)C(=O)CCC23)C2(C)C=CC(=O)C=C12 (stereo not given) [Exemestan] | 100 | 71.7 | 19.6 | 91.6 | 96 | 93.2 | 98.3
17 | Cc1cc(C)nc(Nc2ccccc2)n1 [Pyrimethanil] | 88.8 | 86.4 | 18.3 | 89.2 | 91.1 | 91.4 | 90.3
18 | COCC(C)N(C(=O)CCl)c1c(C)csc1C (stereo not given) [Dimethenamid] | 96 | 92.1 | 19.6 | 94.4 | 92.8 | 91.7 | 92.1
19 | COC(=O)NC(C(=O)NC(Cc1ccccc1)C(O)CN(Cc1ccc(-c2ccccn2)cc1)NC(=O)C(NC(=O)OC)C(C)(C)C)C(C)(C)C (stereo not given) [Atazanavir] | 116 | 61.4 | 20.3 | 87.6 | 100 | 95.5 | 95.1
20 | COc1ccc2c(c1)c(CC(=O)OCC(=O)[O-])c(C)n2C(=O)c1ccc(Cl)cc1 [Acemetacin] | 97.8 | 99.4 | 21.4 | 76.1 | 59.7 | 75.6 | 116
21 | Nc1ccc(S(=O)(=O)[N-]c2ccccn2)cc1 [Sulfapyridin] | 103 | 95.5 | 10.7 | 98.5 | 93.6 | 88.1 | 96.2
22 | N#Cc1c(Cl)c(Cl)c([O-])c(C(=[NH2+])[O-])c1Cl | 109 | 105 | 16.8 | 101 | 99.6 | 94.8 | –
23 | CNC(=O)Nc1ccc(C(C)C)cc1 [Isoproturon-monodemethyl (=1-(4-Isoprophenyl)-3-methylurea)] | 105 | 101 | 18.3 | 96.3 | 93.3 | 94.1 | 98.9
24 | COCCCOc1cc(CC(CC([NH3+])C(O)CC(C(=O)NCC(C)(C)C(N)=O)C(C)C)C(C)C)ccc1OC (stereo not given) [Aliskiren] | 87.1 | 91.1 | 16.7 | 67 | 82.7 | 68.3 | 72.9
25 | CCS(=O)(=O)c1nc2ccccn2c1S(=O)(=O)[N-]C(=O)Nc1nc(OC)cc(OC)n1 [Sulfosulfuron] | 108 | 98.9 | 19.4 | 101 | 94.4 | 94.6 | 102
